Data published in patent US20170089887A1, “CONTRACTILITY ASSAY” (Nano3D Biosciences, Inc, priority 2011, published 2017).
Read-outs that look alike come from different tables or passages of the source. Bridge positions count the residues as written; N and C are the ends. Square brackets hold non-standard residues; d marks the D form. Peptide text beside a SMILES is read from it. Orn = NCCC[C@H](N)C(=O)O; Mpa = O=C(O)CCS

Assays:
[1] = tested on: preterm labor; settings: cited from earlier work; for Onsef of action: clinical dose per Table 1; for Delay in delivery for 48 hrs: clinical treatment of preterm labor
[2] = cited from earlier work
[3] = tested on: myometrial strips; assay: Wire myography of ex vivo myometrial strips in organ bath; set-up: species or system human; settings: 1 μM-1 mM
Method: Ex vivo tissue was also tested for comparison to the CBiO Assay. Uterine biopsies obtained from cesarean sections were cut into myometrial strips (10×2×2 mm) mounted in an organ chamber system bath (10 mL) containing Kreb's buffer maintained at 37° C. and bubbled with 5% CO2/95% O2 to maintain the pH at 7.4. Eight uterine strips were obtained form each individual biopsy. The strips were equilibrated for 1 h starting from a resting tension of 1 g and spontaneous uterine contractility was stabilized for isometric tension recording. […] Two uterine strips were exposed to each tocolytic drug, thereby conducting duplicate experiments for each drug. […] All tocolytic doses used were based from previous human myometrial contractility studies. […] For the ex vivo tissue contractile activity, myometrial strips were mounted in a myograph organ bath system. […] The contractile inhibitory response was the area change at 5 h for the CBiO Assay, and the AUC for myography (FIG. 7). The contractile inhibitory response (CIR) in this experiment was defined as the percent change in ring image pixels before and after drug exposure. Thus, FIG. 7 reports a change in size rather than a rate. However, rates can be reported if desired.

[4] = tested on: myometrial smooth muscle cells; assay: CBiO Assay (contraction of magnetically 3D bioprinted rings); type: cell-based, human
Method: We developed an assay, the CBiO Assay (contractility BiO Assay) to mimic uterine contractility in vitro. The basis of this assay is one in which cells are magnetically 3D bioprinted into 3D rings (e.g., 0.125″ outer diameter, 0.0625″ inner diameter) in 384-well plates. After printing, the magnetic field is removed, and these rings contract immediately (<24 h), as cells within the ring contract, rearrange, and compact the ring.
Along with this CBiO assay, a mobile device-based imaging system (n3Dock) was used to image and measure whole plates of rings (FIG. 3). This imaging system is driven by an iPod Touch (Apple Computer, CA) that was programmed to automatically image plates at regular intervals (≧1 s) for the length of the experiment using a freely available app for download (Experimental Assistant, Nano3D Biosciences). Using the n3Dock to image rings is possible given the fine camera resolution of the iPod (5 MP, resolution=250 μm) (Timm, 2013), and the brown color of the ring imparted by the NS that provides contrast against the lightness of the surrounding media. As a result, the iPod captures images of whole plates in a compact dock that fits within most standard incubators. Of course, any smart phone or pad or tablet equipped with a camera could be used herein.
From the same tissue, cells were grown in vitro as monolayer cultures and then harvested. […]

SMILES: CCOc1ccc(C[C@H]2NC(=O)CCSSC[C@@H](C(=O)N3CCC[C@H]3C(=O)N[C@@H](CCCN)C(=O)NCC(N)=O)NC(=O)[C@H](CC(N)=O)NC(=O)[C@H]([C@@H](C)O)NC(=O)[C@H]([C@@H](C)CC)NC2=O)cc1 [Atosiban] ([Mpa][dY](Et)ITNCP[Orn]G-NH2; disulfide 1-6)
- Onsef of action [1]: 1 hr^63
- Delay in delivery for 48 hrs [1]: 93%^64
- Cmax (Peak plasma concentration) ([2]; clinical dose per Table 1): 442 ng/ml^63

SMILES: COc1ccc2c(c1)c(CC(=O)O)c(C)n2C(=O)c1ccc(Cl)cc1 [Indomethacin]
- Onsef of action ([1]; as recommended by the manufacturer): 2 h
- Delay in delivery for 48 hrs [1]: 90-94%^58-61
- IND/NIF preference ratio (PR) ([3]; Patient 1, AUC): 0.48
- IND/NIF preference ratio (PR) ([3]; Patient 2, AUC): 0.92
- Cmax (Peak plasma concentration) ([2]; clinical dose 50 mg oral, then 25 mg every 6 hrs, as recommended by the manufacturer): 2 µg/mL
- IND/NIF preference ratio (PR) ([4]; Patient 1, area change at 5 h): 0.75
- IND/NIF preference ratio (PR) ([4]; Patient 2, area change at 5 h): 0.97
